Experimental data taken from ChEMBL document CHEMBL2074431, “The novel anticancer drug KRN5500 interacts with, but is hardly transported by, human P-glycoprotein” (Jpn J Cancer Res, 2000).

Target: ATP-dependent translocase ABCB1 (Homo sapiens, UniProt P08183)
Test: TP_TRANSPORTER: inhibition of Azidopine photoaffinity labelling (Azidopine: 0.4 uM, KRN5500: 400 uM) in membrane fraction from MDR1-expressing LLC-PK1 cell
Assay type: functional, cell membranes
Settings: pig, llc-pk1, 400 µM

Chain of ATP-dependent translocase ABCB1 (P08183 whole entry): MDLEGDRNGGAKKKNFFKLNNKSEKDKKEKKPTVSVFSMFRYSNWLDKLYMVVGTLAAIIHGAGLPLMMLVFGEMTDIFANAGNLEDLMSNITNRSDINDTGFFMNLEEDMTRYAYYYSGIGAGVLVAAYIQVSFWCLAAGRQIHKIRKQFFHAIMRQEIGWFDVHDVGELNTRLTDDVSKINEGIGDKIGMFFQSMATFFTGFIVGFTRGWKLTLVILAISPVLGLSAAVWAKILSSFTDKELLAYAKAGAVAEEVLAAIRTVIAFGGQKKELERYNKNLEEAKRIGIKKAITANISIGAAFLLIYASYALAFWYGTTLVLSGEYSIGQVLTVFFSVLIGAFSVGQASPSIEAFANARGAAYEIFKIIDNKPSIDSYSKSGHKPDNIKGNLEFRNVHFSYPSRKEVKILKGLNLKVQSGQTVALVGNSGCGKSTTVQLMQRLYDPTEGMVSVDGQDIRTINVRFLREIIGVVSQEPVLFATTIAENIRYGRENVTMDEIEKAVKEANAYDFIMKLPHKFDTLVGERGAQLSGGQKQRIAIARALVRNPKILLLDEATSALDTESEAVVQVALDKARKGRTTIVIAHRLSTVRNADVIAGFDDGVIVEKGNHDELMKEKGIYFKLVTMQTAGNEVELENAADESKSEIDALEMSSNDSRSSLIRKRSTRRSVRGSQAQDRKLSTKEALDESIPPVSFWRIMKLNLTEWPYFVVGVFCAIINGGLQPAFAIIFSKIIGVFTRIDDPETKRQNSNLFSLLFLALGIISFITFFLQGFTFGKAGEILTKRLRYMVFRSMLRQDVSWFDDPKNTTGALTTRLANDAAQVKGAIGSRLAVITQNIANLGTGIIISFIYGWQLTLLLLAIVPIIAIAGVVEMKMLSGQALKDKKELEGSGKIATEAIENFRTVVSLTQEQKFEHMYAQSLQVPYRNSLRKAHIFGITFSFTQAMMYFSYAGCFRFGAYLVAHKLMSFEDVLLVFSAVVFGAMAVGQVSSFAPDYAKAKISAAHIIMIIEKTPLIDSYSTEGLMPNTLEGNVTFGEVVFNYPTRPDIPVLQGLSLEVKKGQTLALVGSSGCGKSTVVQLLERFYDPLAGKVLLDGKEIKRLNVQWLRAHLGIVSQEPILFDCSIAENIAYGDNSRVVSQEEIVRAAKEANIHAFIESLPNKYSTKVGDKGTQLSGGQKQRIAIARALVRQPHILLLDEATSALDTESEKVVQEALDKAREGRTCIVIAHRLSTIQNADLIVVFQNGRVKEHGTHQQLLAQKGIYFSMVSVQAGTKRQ

For CCCCCCCCC/C=C/C=C/C(=O)NCC(=O)N[C@@H]1[C@@H](O)[C@@H](O)[C@@H](Nc2ncnc3[nH]cnc23)O[C@H]1[C@@H](O)CO, the Activity was “inhibitor [+]”.
